Results from ChEMBL document CHEMBL6120947, “Synthesis and Antiosteoporotic Characterization of Diselenyl Maleimides: Discovery of a Potent Agent for the Treatment of Osteoporosis by Targeting RANKL” (J Med Chem, 2024).
Activity calls are given as the source filed them. The calls are words filed in the database; no cut-off is given here.

Tests used:
[1] = test system: RAW264.7; assay: Inhibition of osteoclastogenesis in RANKL-induced osteoclast differentiation in mouse RAW264.7 cells incubated for 4 days by TRAP staining based analysis; format: functional, cell-based; settings: time 4.0 day
[2] = test system: RAW264.7; assay: Cytotoxicity against mouse RAW264.7 cells assessed as decrease in cell viability at 1 uM incubated for 48 hrs by MTT assay; format: toxicity, cell-based; settings: raw264.7, 48 h

SMILES | inhibition [1] | Activity [2]
COc1ccc([Se]C2=C([Se]c3ccc(OC)cc3)C(=O)N(Cc3ccccc3)C2=O)cc1 | inactive | –
O=C1C([Se]c2ccccc2)=C([Se]c2ccccc2)C(=O)N1c1ccc(Br)cc1 | inactive | –
COc1ccc(CN2C(=O)C([Se]c3ccccc3)=C([Se]c3ccccc3)C2=O)cc1 | inactive | –
O=C1C([Se]c2ccccc2Cl)=C([Se]c2ccccc2Cl)C(=O)N1Cc1ccccc1 | inactive | –
CCc1ccc(N2C(=O)C([Se]c3ccccc3)=C([Se]c3ccccc3)C2=O)cc1 | Active | Toxic
O=C1C([Se]c2ccc(Br)cc2)=C([Se]c2ccc(Br)cc2)C(=O)N1c1ccccc1 | inactive | Toxic
O=C1C(Sc2ccccc2)=C(Sc2ccccc2)C(=O)N1Cc1ccccc1 | inactive | –
O=C1C([Se]c2ccccc2)=C([Se]c2ccccc2)C(=O)N1Cc1cccc(Cl)c1 | inactive | Toxic
O=C1C([Se]c2ccc(Cl)cc2)=C([Se]c2ccc(Cl)cc2)C(=O)N1Cc1ccccc1 | inactive | –
COc1ncccc1[Se]C1=C([Se]c2cccnc2OC)C(=O)N(c2ccccc2)C1=O | inactive | Toxic
C[Se]C1=C([Se]C)C(=O)N(Cc2ccccc2)C1=O | inactive | –
Cc1ccccc1[Se]C1=C([Se]c2ccccc2C)C(=O)N(Cc2ccccc2)C1=O | inactive | –
CCC[Se]C1=C([Se]CCC)C(=O)N(c2ccccc2)C1=O | inactive | –
O=C1C([Se]c2ccccc2)=C([Se]c2ccccc2)C(=O)N1Cc1ccccc1Br | inactive | Toxic
CC[Se]C1=C([Se]CC)C(=O)N(c2ccccc2)C1=O | inactive | –
Cc1cccc([Se]C2=C([Se]c3cccc(C)c3)C(=O)N(Cc3ccccc3)C2=O)c1 | inactive | –
O=C1C([Se]c2ccccc2)=C([Se]c2ccccc2)C(=O)N1c1ccccc1 | inactive | –
N#Cc1ccc(CN2C(=O)C([Se]c3ccccc3)=C([Se]c3ccccc3)C2=O)cc1 | inactive | –
O=C1C([Se]c2ccccc2)=C([Se]c2ccccc2)C(=O)N1Cc1cccc(F)c1 | inactive | –
COC(=O)CCN1C(=O)C([Se]c2ccccc2)=C([Se]c2ccccc2)C1=O | inactive | –
Cc1ccc(CN2C(=O)C([Se]c3ccccc3)=C([Se]c3ccccc3)C2=O)cc1 | inactive | Toxic
Cc1ccc([Se]C2=C([Se]c3ccc(C)cc3)C(=O)N(c3ccccc3)C2=O)cc1 | Active | Toxic
O=C1C([Se]c2cccc([N+](=O)[O-])c2)=C([Se]c2cccc([N+](=O)[O-])c2)C(=O)N1Cc1ccccc1 | inactive | –
CC(C)(C)N1C(=O)C([Se]c2ccccc2)=C([Se]c2ccccc2)C1=O | inactive | –

SMILES | inhibition [1] | Activity [2]
CCN1C(=O)C([Se]c2ccccc2)=C([Se]c2ccccc2)C1=O | inactive | –
CN1C(=O)C([Se]c2ccccc2)=C([Se]c2ccccc2)C1=O | inactive | –
O=C1C([Se]c2ccccc2)=C([Se]c2ccccc2)C(=O)N1Cc1ccccc1Cl | inactive | –
O=C1C([Se]c2ccccc2)=C([Se]c2ccccc2)C(=O)N1Cc1cccc(Br)c1 | inactive | –
O=C1C([Se]c2ccccc2)=C([Se]c2ccccc2)C(=O)N1c1c(Cl)cc(Cl)cc1Cl | inactive | –
Cc1cccc(CN2C(=O)C([Se]c3ccccc3)=C([Se]c3ccccc3)C2=O)c1 | inactive | Toxic
N#Cc1cccc([Se]C2=C([Se]c3cccc(C#N)c3)C(=O)N(c3ccccc3)C2=O)c1 | inactive | Toxic
O=C1C=CC(=O)N1Cc1ccccc1 | inactive | –
O=C1C([Se]c2ccccc2)=C([Se]c2ccccc2)C(=O)N1C1CCCCC1 | inactive | –
O=C1C([Se]c2cccc(F)c2)=C([Se]c2cccc(F)c2)C(=O)N1Cc1ccccc1 | inactive | –
O=C1C=C([Se]c2ccccc2)C(=O)N1Cc1ccccc1 | inactive | –
O=C1C([Se]c2cccc(Br)c2)=C([Se]c2cccc(Br)c2)C(=O)N1Cc1ccccc1 | inactive | –
O=C1C([Se]c2cccc(Cl)c2)=C([Se]c2cccc(Cl)c2)C(=O)N1Cc1ccccc1 | inactive | –
Cc1cccc([Se]C2=C([Se]c3cccc(C)c3)C(=O)N(c3ccccc3)C2=O)c1 | Active | –
O=C1C([Se]c2ccccc2)=C([Se]c2ccccc2)C(=O)N1Cc1ccc(I)cc1 | inactive | –
CC(=O)c1ccc(N2C(=O)C([Se]c3ccccc3)=C([Se]c3ccccc3)C2=O)cc1 | Active | –
O=C1C([Se]c2ccccc2)=C([Se]c2ccccc2)C(=O)N1Cc1ccc(F)cc1 | inactive | –
O=C1C([Se]c2ccccc2Cl)=C([Se]c2ccccc2Cl)C(=O)N1c1ccccc1 | Active | –
O=C1NC(=O)C([Se]c2ccccc2)=C1[Se]c1ccccc1 | Active | –
O=C1C([Se]c2ccccc2)=C([Se]c2ccccc2)C(=O)N1Cc1ccc(Cl)cc1 | inactive | –
Cc1ccccc1CN1C(=O)C([Se]c2ccccc2)=C([Se]c2ccccc2)C1=O | inactive | –
O=C1C([Se]c2ccccc2Br)=C([Se]c2ccccc2Br)C(=O)N1c1ccccc1 | inactive | Toxic
COc1ccccc1[Se]C1=C([Se]c2ccccc2OC)C(=O)N(Cc2ccccc2)C1=O | inactive | –
N#Cc1ccc([Se]C2=C([Se]c3ccc(C#N)cc3)C(=O)N(Cc3ccccc3)C2=O)cc1 | inactive | –
